# Patent publication US8623924B2, “Compositions and methods for modulating metabolic pathways” (Nusirt Sciences, Inc., priority 2011, dated 2014)
# Entries after “also recorded” stand apart in the source; their conditions may differ. Marks after values point to notes of the source that are not given here.
# Key:
# MCP-1 = assay: Inflammatory biomarker MCP-1 in diet-induced obese mice; format: in vivo; conditions: 6 weeks on diet, low resveratrol 12.5 mg/kg diet, low HMB 2 g CaHMB/kg diet, high HMB 10 g CaHMB/kg diet, leucine 2.42% of diet
# Sirt3 = target: T1, Sirt3 (Mus musculus, UniProt Q8R104); assay: Sirt3 activity in mitochondrial protein of treated 3T3-L1 adipocytes; format: cell-based; conditions: 4 hours, leucine 0.5 mM, HMB 5 uM, resveratrol 200 nM
# T1 construct: endogenous in cells; host or cells: 3T3-L1 adipocytes (mitochondrial protein)
# T1 sequence (Q8R104 1-334): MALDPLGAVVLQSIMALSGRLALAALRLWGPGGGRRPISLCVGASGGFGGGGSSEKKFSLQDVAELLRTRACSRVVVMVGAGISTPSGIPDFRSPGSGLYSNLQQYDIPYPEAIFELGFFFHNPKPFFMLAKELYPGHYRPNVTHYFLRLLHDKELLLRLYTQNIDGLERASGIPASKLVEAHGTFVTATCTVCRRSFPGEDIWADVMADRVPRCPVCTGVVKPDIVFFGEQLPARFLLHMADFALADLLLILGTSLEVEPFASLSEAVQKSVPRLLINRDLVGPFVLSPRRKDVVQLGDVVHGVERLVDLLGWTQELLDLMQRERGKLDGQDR
# [1] = Oxygen consumption/substrate utilization (metabolic chambers) in diet-induced obese mice; format: in vivo; conditions: low resveratrol 12.5 mg/kg diet, low HMB 2 g CaHMB/kg diet, high HMB 10 g CaHMB/kg diet, leucine 2.42% of diet
# Protocol: (§1) Six week old male c57/BL6 mice were fed a high-fat diet with fat increased to 45% of energy (Research Diets D12451) for 6 weeks to induce obesity.
# Oxygen Consumption/Substrate Utilization: at the end of the obesity induction period (day 0 of treatment group) and at 2 weeks and 6 weeks of treatment, oxygen consumption and substrate utilization was measured via metabolic chambers using the Comprehensive Lab Animal Monitoring Systems (CLAMS, Columbus Instruments, Columbus, Ohio) in subgroups of each treatment group. Each animal was placed in individual cages without bedding that allow automated, non-invasive data collection. Each cage is an indirect open circuit calorimeter that provides measurement of oxygen consumption, carbon dioxide production, and concurrent measurement of food intake. All mice were acclimatized to the chambers for 24 hours prior to the experiment and maintained under the regular 12:12 light:dark cycle with free access to water and food. All experiments were started in the morning and data were collected for 24 hours. Each chamber was passed with 0.6 l of air/min and was sampled for 2 min at 32-minute intervals. Exhaust O2 and CO2 content from each chamber was compared with ambient O2 and CO2 content. Food consumption was measured by electronic scales.
# C-reactive protein = assay: Inflammatory biomarker C-reactive protein in diet-induced obese mice; format: in vivo; conditions: 6 weeks on diet, low resveratrol 12.5 mg/kg diet, low HMB 2 g CaHMB/kg diet, high HMB 10 g CaHMB/kg diet, leucine 2.42% of diet
# [2] = Indices of insulin sensitivity (plasma glucose, insulin, HOMAIR) in diet-induced obese mice; format: in vivo; conditions: 6 weeks on diet, low resveratrol 12.5 mg/kg diet, low HMB 2 g CaHMB/kg diet, high HMB 10 g CaHMB/kg diet, leucine 2.42% of diet
# Description: Insulin sensitivity can be measured using a variety of techniques, including HOMAIR. HOMAIR, which is the homeostasis model assessment of insulin resistance can be used as a screening index of changes in insulin sensitivity. HOMAIR can be calculated via standard formula from fasting plasma insulin and glucose as follows: HOMAIR=[Insulin (uU/mL)×glucose (mM)]/22.5.
# as §1
# At the of the treatment period (6 weeks) all animals were humanely euthanized, and blood and tissues collected for further experiments.
# IL-6 = assay: Inflammatory biomarker IL-6 in diet-induced obese mice; format: in vivo; conditions: 6 weeks on diet, low resveratrol 12.5 mg/kg diet, low HMB 2 g CaHMB/kg diet, high HMB 10 g CaHMB/kg diet, leucine 2.42% of diet
# Sirt1 = target: T2, Sirt1 (Mus musculus, UniProt Q923E4); assay: Adipose tissue Sirt1 activity in diet-induced obese mice; format: in vivo; conditions: low dose of resveratrol, HMB, or their combinations with HMB or leucine (FIG. 10)
# T2 construct: from tissue; host or cells: adipose tissue of c57/BL6 mice
# T2 sequence (Q923E4 1-737): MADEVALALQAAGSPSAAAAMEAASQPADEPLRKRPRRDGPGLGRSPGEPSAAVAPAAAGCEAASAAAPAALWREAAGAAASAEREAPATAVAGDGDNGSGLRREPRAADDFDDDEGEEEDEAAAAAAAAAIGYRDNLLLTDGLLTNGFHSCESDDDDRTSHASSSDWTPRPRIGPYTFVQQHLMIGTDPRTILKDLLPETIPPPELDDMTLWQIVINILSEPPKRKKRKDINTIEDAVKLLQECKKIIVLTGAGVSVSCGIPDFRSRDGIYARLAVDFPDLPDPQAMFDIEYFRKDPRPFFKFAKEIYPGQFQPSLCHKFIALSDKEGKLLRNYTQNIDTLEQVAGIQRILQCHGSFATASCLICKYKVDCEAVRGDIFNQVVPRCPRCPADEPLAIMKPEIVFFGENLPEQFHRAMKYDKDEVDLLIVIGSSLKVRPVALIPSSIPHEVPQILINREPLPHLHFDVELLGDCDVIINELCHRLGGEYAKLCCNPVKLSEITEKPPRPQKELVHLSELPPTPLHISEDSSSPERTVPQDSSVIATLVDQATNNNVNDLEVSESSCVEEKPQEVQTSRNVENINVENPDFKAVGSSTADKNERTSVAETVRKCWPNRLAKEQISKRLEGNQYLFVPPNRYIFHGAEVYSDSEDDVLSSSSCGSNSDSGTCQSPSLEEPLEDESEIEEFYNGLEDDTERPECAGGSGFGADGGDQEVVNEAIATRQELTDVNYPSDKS
smiles,measurement,setting,value
CC(C)(O)CC(=O)O [HMB],MCP-1 (pg/mL),MCP-1,116.8 ± 9.3^a pg/mL
same,increase in Sirt3 activity,Sirt3,no significant independent effect; also recorded: no independent effects
same,Heat Production,[1],0.526 ± 0.011^a
same,Respiratory Exchange Ratio (24 hr RER),[1],0.844 ± 0.012^a
same,C-reactive protein,C-reactive protein,98.6 ± 5.1 ng/mL
same,HOMAIR,[2],1.93 ± 0.32^a
same,Glucose (mM),[2]; plasma,4.28 ± 0.49^a mM
same,Insulin (μU/mL),[2]; plasma,8.3 ± 1.1^a μU/mL
same,IL-6 (pg/mL),IL-6,19.9 ± 3.1^a pg/mL
same,adipose tissue Sirt1 activity,Sirt1,Neither resveratrol nor HMB exerted significant independent effects
